Experimental data published in US20250304582A1, “Bicyclic Ureas As Kinase Inhibitors” (Incyte Corporation, priority 2024, published 2025).
pIC50: −log10 of the molar value.

Experiments:
[1] = biological target: T1, catalytic domain (JH1, amino acids 808-1132) of human JAK2 (Homo sapiens, UniProt O60674); assay: JAK2 HTRF Enzyme Activity Assay; format: biochemical; conditions: ATP (30 μM or 1 mM; not stated which for the table), 60 minutes at 25° C.; read-out: JAK2 HTRF (Ex. D)
T1 construct: catalytic domain (JH1, amino acids 808-1132) of human JAK2; His (N); purchased BPS Bioscience 40450; host or cells: baculovirus expression system
T1 sequence (O60674 808-1132): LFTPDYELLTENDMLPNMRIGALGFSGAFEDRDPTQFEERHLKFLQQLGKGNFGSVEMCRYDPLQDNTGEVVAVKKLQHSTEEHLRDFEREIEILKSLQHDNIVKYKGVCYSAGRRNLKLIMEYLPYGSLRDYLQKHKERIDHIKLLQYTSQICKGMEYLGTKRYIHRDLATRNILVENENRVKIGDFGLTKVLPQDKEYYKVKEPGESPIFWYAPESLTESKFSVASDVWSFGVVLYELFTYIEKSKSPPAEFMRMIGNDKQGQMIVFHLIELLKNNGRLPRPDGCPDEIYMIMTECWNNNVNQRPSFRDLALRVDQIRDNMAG
Procedure: Example D. JAK2 HTRF Enzyme Activity Assay
JAK2 enzyme activity assays utilize catalytic domain (JH1, amino acids 808-1132) of human JAK2 expressed as N-terminal His-tagged protein in a baculovirus expression system (BPS Bioscience, Catalog #40450). The assays was conducted in black 384-well polystyrene plates in a final reaction volume of 20 μL. JAK2 (0.015 nM) was incubated with compounds (100 nL serially diluted in DMSO) in the presence of ATP (30 μM or 1 mM) and 500 nM Biotin-labeled EQEDEPEGDYFEWLE (SEQ ID NO.: 1) peptide (BioSource International, custom synthesis) in assay buffer (50 mM Tris, pH=7.5, 10 mM MgCl2, 0.01% Brij-35, 0.1% BSA, 1 mM EGTA, 5% Glycerol and 5 mM DTT) for 60 minutes at 25° C. The reactions were stopped by the addition of 10 μL of detection buffer (50 mM Tris, pH 7.8, 0.5 mg/mL BSA, 150 mM NaCl), supplemented with EDTA, LANCE Eu-W1024 anti-phosphotyrosine (PY20), (PerkinElmer, Catalog #AD0067) and Streptavidin SureLight APC (PerkinElmer Catalog #CR130-100), for a final concentration of 15 mM, 1.5 nM and 75 nM, respectively. HTRF signals were read after 30 minutes incubation at room temperature on a PHERAstar FS plate reader (BMG LABTECH). Data was analyzed with TDBS Xlfit and GraphPad Prism 5.0 software using a four parameter dose response curve to determine IC50 for each compound.

[2] = biological target: T2, catalytic domain (JH1, amino acids 826-1132) of human JAK2 (Homo sapiens, UniProt O60674); assay: JAK2 LanthaScreen JH1 Binding Assay; conditions: 50 nM fluorescent JAK2-JH1 tracer, 2 hours at 25° C.; read-out: JH1 BIND (EX. A)
T2 construct: catalytic domain (JH1, amino acids 826-1132) of human JAK2; FLAG (N); purchased Carna Biosciences 08-445-20N; host or cells: baculovirus expression system
T2 sequence (O60674 826-1132): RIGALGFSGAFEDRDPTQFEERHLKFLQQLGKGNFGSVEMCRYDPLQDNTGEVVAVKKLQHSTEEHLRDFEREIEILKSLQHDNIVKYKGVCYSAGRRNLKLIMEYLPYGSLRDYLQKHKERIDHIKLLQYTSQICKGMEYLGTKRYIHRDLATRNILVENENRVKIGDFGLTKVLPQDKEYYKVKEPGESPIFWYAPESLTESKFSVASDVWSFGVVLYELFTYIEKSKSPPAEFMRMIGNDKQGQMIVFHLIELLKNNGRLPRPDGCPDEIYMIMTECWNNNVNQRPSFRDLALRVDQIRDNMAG
Procedure: Example A. JAK2 LanthaScreen JH1 Binding Assay
JAK2 JH1 binding assay utilizes catalytic domain (JH1, amino acids 826-1132) of human JAK2 expressed as N-terminal FLAG-tagged, biotinylated protein in a baculovirus expression system (Carna Biosciences, Product #08-445-20N). The assay was conducted in black 384-well polystyrene plates in a final reaction volume of 20 μL. JAK2 JH1 (1.5 nM) was incubated with compounds (100 nL serially diluted in DMSO) in the presence of 50 nM fluorescent JAK2-JH1 tracer and 0.5 nM Streptavidin-Tb cryptate (Cisbio Part #610SATLB) in assay buffer (50 mM Tris, pH=7.5, 10 mM MgCl2, 0.01% Brij-35, 0.1% BSA, 1 mM EGTA, 5% Glycerol and 5 mM DTT). Non-specific binding was accessed in the presence of 2 mM ATP. After incubation for 2 hours at 25° C., LanthaScreen signals were read on a PHERAstar FS plate reader (BMG LABTECH). Data was analyzed with IDBS Xlfit and GraphPad Prism 5.0 software using a four parameter dose response curve to determine IC50 for each compound.

[3] = biological target: T3, pseudo-kinase domain (JH2, amino-acids 536-812) of human V617F mutant JAK2 (Homo sapiens, UniProt O60674, F794H/V617F/W659A/W777A); assay: JAK2 LanthaScreen JH2-V617F Binding Assay; conditions: 50 nM Fluorescent JAK2-JH2 Tracer, 1 hour at 25° C.; read-out: JH2 BIND V617F (Ex. C)
T3 construct: JH2, amino-acids 536-812 with 3 surface mutations W659A, W777A, F794H; His (C); purchased BPS Bioscience 79498; host or cells: baculovirus expression system
T3 sequence (O60674 536-812 V617F/W659A/W777A/F794H): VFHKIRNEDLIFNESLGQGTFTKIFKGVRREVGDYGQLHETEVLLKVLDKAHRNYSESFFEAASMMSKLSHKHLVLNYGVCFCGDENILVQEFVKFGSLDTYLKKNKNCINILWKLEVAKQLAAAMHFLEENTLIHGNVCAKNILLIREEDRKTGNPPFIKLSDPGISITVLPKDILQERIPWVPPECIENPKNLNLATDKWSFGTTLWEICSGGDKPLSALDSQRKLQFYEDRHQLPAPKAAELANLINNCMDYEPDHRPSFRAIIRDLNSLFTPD
Procedure: Example C. JAK2 LanthaScreen JH2-V617F Binding Assay
(§1) JAK2 JH2-V617F binding assay utilizes pseudo-kinase domain (JH2, amino-acids 536-812 with 3 surface mutations W659A, W777A, F794H) of human V617F mutant JAK2 expressed as C-terminal His-Avi-tagged, biotinylated protein in a baculovirus expression system (BPS Bioscience, Catalog #79498). The assay was conducted in black 384-well polystyrene plates in a final reaction volume of 20 μL. JAK2 JH2-V617F (0.26 nM) was incubated with compounds (100 nL serially diluted in DMSO) in the presence of 50 nM Fluorescent JAK2-JH2 Tracer (MedChem Express Catalog #HY-102055) and 0.25 nM Streptavidin-Tb cryptate (Cisbio Part #610SATLB) in assay buffer (50 mM Tris, pH=7.5, 10 mM MgCl2, 0.01% Brij-35, 0.1% BSA, 1 mM EGTA, 5% Glycerol and 5 mM DTT). Non-specific binding was accessed in the presence of 2 mM ATP. After incubation for 1 hour at 25° C., LanthaScreen signals were read on a PHERAstar FS plate reader (BMG LABTECH). Data was analyzed with IDBS Xlfit and GraphPad Prism 5.0 software using a four parameter dose response curve to determine IC50 for each compound.

[4] = biological target: T4, pseudo-kinase domain (JH2, amino-acids 536-812) of human Wild Type JAK2 (Homo sapiens, UniProt O60674, F794H/W659A/W777A); assay: JAK2 LanthaScreen JH2-WT Binding Assay; conditions: 50 nM Fluorescent JAK2-JH2 Tracer, 1 hour at 25° C.; read-out: JH2 BIND WT (EX. B)
T4 construct: JH2, amino-acids 536-812 with 3 surface mutations W659A, W777A, F794H; His (C); purchased BPS Bioscience 79463; host or cells: baculovirus expression system
T4 sequence (O60674 536-812 W659A/W777A/F794H): as the sequence (O60674 536-812 V617F/W659A/W777A/F794H) above, with F82V counted along it
Procedure: Example B. JAK2 LanthaScreen JH2-WT Binding Assay
as §1, with “JH2-WT” for “JH2-V617F”, “Wild Type” for “V617F mutant”, “#79463).” for “#79498).”, “JH2-WT (0.145” for “JH2-V617F (0.26”

Structure (SMILES)	pIC50 [1]	pIC50 [2]	pIC50 [3]	pIC50 [4]
[2H]C([2H])([2H])n1c(=O)n([C@@H]2CC[C@@H](NC(=O)OC)C2)c2cc(Nc3cc(C(C)(O)C(F)(F)F)c4cccc(C(F)(F)F)c4n3)ncc21 (stereo partly drawn) [Example 3, Methyl ((1R,3R)-3-(3-(methyl-d3)-2-oxo-6-((4-(1,1,1-trifluoro-2-hydroxypropan-2-yl)-8-(trifluoromethyl)quinolin-2-yl)amino)-2,3-dihydro-1H-imidazo[4,5-c]pyridin-1-yl)cyclopentyl)carbamate]	< 6.00	< 6.00	≥ 8.00	≥ 8.00
COC(=O)N[C@@H]1CC[C@@H](n2c(=O)n(C)c3cnc(Nc4ccc5cc(C#N)ccc5n4)cc32)C1 [Example 45, Methyl ((1R,3R)-3-(6-((6-cyanoquinolin-2-yl)amino)-3-methyl-2-oxo-2,3-dihydro-1H-imidazo[4,5-c]pyridin-1-yl)cyclopentyl)carbamate]	< 6.00	< 6.00	6.30 to 7.00	7.00 to 8.00
COC(=O)N[C@@H]1CC[C@@H](n2c(=O)n(C)c3cnc(Nc4cc(Cl)c5cccc(C(F)(F)F)c5n4)cc32)C1 [Example 21, Methyl ((1R,3R)-3-(6-((4-chloro-8-(trifluoromethyl)quinolin-2-yl)amino)-3-methyl-2-oxo-2,3-dihydro-1H-imidazo[4,5-c]pyridin-1-yl)cyclopentyl)carbamate]	< 6.00	< 6.00	≥ 8.00	≥ 8.00
[2H]C([2H])([2H])n1c(=O)n([C@@H]2CC[C@@H](NC(=O)OC)C2)c2cc(Nc3ccc4cncc(C)c4n3)ncc21 [Example 28, Methyl ((1R,3R)-3-(3-(methyl-d3)-6-((8-methyl-1,6-naphthyridin-2-yl)amino)-2-oxo-2,3-dihydro-1H-imidazo[4,5-c]pyridin-1-yl)cyclopentyl)carbamate]	< 6.00	< 6.00	≥ 8.00	≥ 8.00
[2H]C([2H])([2H])n1c(=O)n([C@@H]2CC[C@@H](NC(=O)OC)C2)c2cc(Nc3cc(C(C)(C)C#N)c4cccc(C(F)(F)F)c4n3)ncc21 [Example 19, Methyl ((1R,3R)-3-(6-((4-(2-cyanopropan-2-yl)-8-(trifluoromethyl)quinolin-2-yl)amino)-3-(methyl-d3)-2-oxo-2,3-dihydro-1H-imidazo[4,5-c]pyridin-1-yl)cyclopentyl)carbamate]	< 6.00	< 6.00	≥ 8.00	≥ 8.00
[2H]C([2H])([2H])n1c(=O)n([C@@H]2CC[C@@H](NC(=O)OC)C2)c2cc(Nc3cc(C(C)(C)O)c4nccc(C)c4n3)ncc21 [Example 29, Methyl ((1R,3R)-3-(6-((4-(2-hydroxypropan-2-yl)-8-methyl-1,5-naphthyridin-2-yl)amino)-3-(methyl-d3)-2-oxo-2,3-dihydro-1H-imidazo[4,5-c]pyridin-1-yl)cyclopentyl)carbamate]	< 6.00	< 6.00	≥ 8.00	≥ 8.00
[2H]C([2H])([2H])n1c(=O)n([C@H]2C[C@H](NC(=O)OC)C2)c2cc(Nc3cc(C(C)(C)O)c4cccc(C(F)(F)F)c4n3)ncc21 [Example 15, Methyl ((trans)-3-(6-((4-(2-hydroxypropan-2-yl)-8-(trifluoromethyl)quinolin-2-yl)amino)-3-(methyl-d3)-2-oxo-2,3-dihydro-1H-imidazo[4,5-c]pyridin-1-yl)cyclobutyl)carbamate]	6.30 to 7.00	6.30 to 7.00	≥ 8.00	≥ 8.00
[2H]C([2H])([2H])n1c(=O)n([C@@H]2CC[C@@H](NC(=O)OC)C2)c2cc(Nc3cc(C(C)(C)O)c4cc(Cl)cc(C(F)(F)F)c4n3)ncc21 [Example 20, Methyl ((1R,3R)-3-(6-((6-chloro-4-(2-hydroxypropan-2-yl)-8-(trifluoromethyl)quinolin-2-yl)amino)-3-(methyl-d3)-2-oxo-2,3-dihydro-1H-imidazo[4,5-c]pyridin-1-yl)cyclopentyl)carbamate]	< 6.00	< 6.00	≥ 8.00	≥ 8.00
[2H]C([2H])([2H])n1c(=O)n([C@@H]2CC[C@@H](NC(=O)OC)C2)c2cc(Nc3ccc4c(C(C)(C)O)ccc(C(F)(F)F)c4n3)ncc21 [Example 47, Methyl ((1R,3R)-3-(6-((5-(2-hydroxypropan-2-yl)-8-(trifluoromethyl)quinolin-2-yl)amino)-3-(methyl-d3)-2-oxo-2,3-dihydro-1H-imidazo[4,5-c]pyridin-1-yl)cyclopentyl)carbamate]	< 6.00	< 6.00	≥ 8.00	≥ 8.00
[2H]C([2H])([2H])n1c(=O)n([C@@H]2CC[C@@H](NC(=O)OC)C2)c2cc(Nc3cc(CC#N)c4cccc(C(F)(F)F)c4n3)ncc21 [Example 18, Methyl ((1R,3R)-3-(6-((4-(cyanomethyl)-8-(trifluoromethyl)quinolin-2-yl)amino)-3-(methyl-d3)-2-oxo-2,3-dihydro-1H-imidazo[4,5-c]pyridin-1-yl)cyclopentyl)carbamate]	6.00 to 6.30	6.00 to 6.30	≥ 8.00	≥ 8.00
